“And” between values parts separate entries of the source, which are not always exact repeats. Equal entries are not always repeated. Where two headings read alike, the source gives them in different places.
Assays:
AChE [1] = biological target: T1, AChE (Electrophorus electricus, UniProt O42275); test: biochemical; conditions: for IC50: 0.05 Unit/mL enzyme, pH 7.4, 37°C, 30 min, triplicate, mean ± SEM; for inhibition at 100 µM: read-out: Inhibition of AChE
T1 construct: purchased Sigma-Aldrich Co. (St. Louis, Missouri, United States) C3389
T1 sequence (O42275 24-633): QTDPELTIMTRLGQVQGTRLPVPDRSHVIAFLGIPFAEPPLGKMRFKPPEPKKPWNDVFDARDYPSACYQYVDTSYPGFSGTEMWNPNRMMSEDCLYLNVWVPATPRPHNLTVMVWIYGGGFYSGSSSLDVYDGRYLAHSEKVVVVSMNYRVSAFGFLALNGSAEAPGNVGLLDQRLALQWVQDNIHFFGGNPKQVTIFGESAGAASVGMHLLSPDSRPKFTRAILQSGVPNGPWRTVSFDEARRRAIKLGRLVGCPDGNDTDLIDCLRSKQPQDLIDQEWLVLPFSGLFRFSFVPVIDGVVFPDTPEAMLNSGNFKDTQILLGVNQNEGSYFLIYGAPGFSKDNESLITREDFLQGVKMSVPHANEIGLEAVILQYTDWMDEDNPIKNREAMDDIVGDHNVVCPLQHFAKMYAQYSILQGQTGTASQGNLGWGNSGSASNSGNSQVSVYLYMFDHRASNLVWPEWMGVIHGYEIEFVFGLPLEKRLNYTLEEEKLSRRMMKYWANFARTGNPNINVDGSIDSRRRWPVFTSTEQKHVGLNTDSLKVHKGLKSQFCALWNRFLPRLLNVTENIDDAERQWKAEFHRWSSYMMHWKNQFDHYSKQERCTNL
Procedure: (§1) All HPLC solvents were purchased from Guangdong Guanghua Sci-Tech Co. Ltd. (Guangzhou, China). […] All chemicals and solvents used in column chromatography and assays were acquired from commercial sources.
(§2) 25 µL of 1 mM DTNB [5,5′-dithiobis (2-nitrobenzoic acide)] and 25 µL of 5 mM substrate, acetylthiocholine iodide (A5751), and butyrylthiocholine iodide (B3253) were sequentially added to wells in the plate. […] The inhibition ratio was calculated using the equation: Inhibitory activity(%)=[(ΔC-ΔI)/ΔC]×100 Where C and I are the intensity of control and inhibitor after 20 min, respectively.
(§3) Compounds were first evaluated in vitro for their inhibitory activities against AChE and BuChE at a concentration of 100 µM.

BuChE [2] = biological target: T2, BuChE (Equus caballus, UniProt P81908); test: biochemical; format: biochemical; conditions: for IC50: 0.05 Unit/mL enzyme, pH 7.4, 37°C, 30 min, triplicate, mean ± SEM; for inhibition at 100 µM: read-out: Inhibition of BuChE
T2 construct: purchased Sigma-Aldrich Co. (St. Louis, Missouri, United States) C1057
T2 sequence (P81908 whole entry): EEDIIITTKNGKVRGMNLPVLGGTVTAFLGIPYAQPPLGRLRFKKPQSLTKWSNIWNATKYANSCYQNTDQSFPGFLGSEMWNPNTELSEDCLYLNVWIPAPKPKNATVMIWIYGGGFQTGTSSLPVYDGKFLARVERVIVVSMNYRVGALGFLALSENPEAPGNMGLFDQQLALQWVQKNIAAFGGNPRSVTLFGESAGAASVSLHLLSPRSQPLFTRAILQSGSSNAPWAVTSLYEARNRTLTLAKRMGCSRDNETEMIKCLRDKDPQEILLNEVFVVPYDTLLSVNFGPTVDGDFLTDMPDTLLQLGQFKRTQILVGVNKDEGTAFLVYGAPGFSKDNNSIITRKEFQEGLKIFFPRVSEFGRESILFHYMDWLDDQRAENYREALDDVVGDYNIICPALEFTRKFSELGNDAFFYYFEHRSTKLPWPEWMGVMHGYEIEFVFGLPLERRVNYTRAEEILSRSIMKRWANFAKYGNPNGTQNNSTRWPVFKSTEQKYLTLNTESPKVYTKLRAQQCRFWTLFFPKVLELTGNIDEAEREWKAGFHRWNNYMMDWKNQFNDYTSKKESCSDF
Procedure: as §1, §2, §3

AChE [3] = biological target: T1, AChE; test: Enzyme kinetics on AChE (Lineweaver-Burk and Dixon plots); format: biochemical; conditions: for Ki: Dixon plots, read-out: AChE K i; for AChE Inhibition type: Lineweaver-Burk plots, compound 2–90 µM, substrate 0.07–5 mM
Procedure: (§4) […]. This was achieved by performing enzyme kinetic studies on AChE/BuChE in the presence of different concentrations of compounds 30–34 (2–90 µM) at various steady-state substrate concentrations (0.07–5 mM). The interactions between compounds and cholinesterase are represented using classic double-reciprocal Lineweaver-Burk and Dixon plots ([Lineweaver and Burk, 1934]; [Dixon, 1953]). […] The resulting linear equations for compounds 30–34 with BuChE led to a series of lines with different slopes that crossed at similar intercepts on the vertical axis and different points on the horizontal axis.

BuChE [4] = biological target: T2, BuChE; test: Enzyme kinetics on BuChE (Lineweaver-Burk and Dixon plots); format: biochemical; conditions: for Ki: Dixon plots, read-out: BuChE K i; for BuChE Inhibition type: Lineweaver-Burk plots, compound 2–90 µM, substrate 0.07–5 mM
Procedure: as §4

| Molecule | IC50 (AChE [1]) [µM] | inhibition at 100 µM (AChE [1]; at 100 µM) [%] | IC50 (BuChE [2]) [µM] | BuChE inhibitory activity relative to Compound 34 (BuChE [2]; from IC50 values (7.5 vs 17.1 µM)) | Ki (AChE [3]) [µM] | AChE Inhibition type (AChE [3]) | Ki (BuChE [4]) | BuChE Inhibition type (BuChE [4]) | inhibition at 100 µM (BuChE [2]; at 100 µM) [%] | inhibition at 100 µM (AChE [1]) [%] | inhibition at 100 µM (BuChE [2]) [%] |
| --- | --- | --- | --- | --- | --- | --- | --- | --- | --- | --- | --- |
| COc1cc(/C=C/C(=O)OC[C@H]2O[C@H](O[C@]3(COC(=O)/C=C/c4ccc(O)cc4)O[C@H](COC(=O)/C=C/c4ccc(O)cc4)[C@@H](O)[C@@H]3OC(=O)/C=C/c3ccc(O)cc3)[C@H](O)[C@@H](O)[C@@H]2O)ccc1O [Compound 31, vanicoside B] | 32.3 ± 4.7 | > 60 | 7.5 ± 4.1 | over 2 fold | ~30 | non-competitive inhibitors | ~3.5 µM | Competitive |  |  |  |
| smilaside J [Compound 33] | 56 ± 2.4 |  | 10.1 ± 4.6 |  |  |  | ~8.5 µM | Competitive |  |  |  |
| Oc1cc(O)c2c(c1)O[C@H](c1ccc(O)c(O)c1)[C@H](O)C2 [Compound 19, (-)-epicatechin] |  | > 50 |  |  |  |  |  |  | > 50 |  |  |
| O=c1cc(-c2ccc(O)cc2)oc2cc(O)cc(O)c12 [Compound 1, apigenin] |  |  |  |  |  |  |  |  | > 50 | > 50 |  |
| COc1cc(/C=C/C(=O)OC[C@H]2O[C@@](COC(=O)/C=C/c3ccc(O)c(OC)c3)(O[C@H]3O[C@H](COC(=O)/C=C/c4ccc(O)c(OC)c4)[C@@H](O)[C@H](O)[C@H]3O)[C@@H](OC(=O)/C=C/c3ccc(O)cc3)[C@@H]2O)ccc1O [Compound 30, lapathoside B] | > 100 |  | 10.9 ± 4.9 |  |  |  | ~12.1 µM | Competitive |  |  |  |
| COc1cc(/C=C/C(=O)OC[C@H]2O[C@H](O[C@]3(COC(=O)/C=C/c4ccc(O)c(OC)c4)O[C@H](COC(=O)/C=C/c4ccc(O)cc4)[C@@H](O)[C@@H]3OC(=O)/C=C/c3ccc(O)cc3)[C@H](O)[C@@H](O)[C@@H]2O)ccc1O [Compound 32, lapathoside A] | 30.6 ± 4.7 | > 60 | 2.7 ± 1.7 |  | ~34.4 | non-competitive inhibitors | ~1.8 µM | Competitive |  |  |  |
| O=c1c(O[C@@H]2O[C@H](CO)[C@@H](O)[C@H](O)[C@H]2O)c(-c2ccc(O)cc2)oc2cc(O)cc(O)c12 [Compound 5, astragalin] |  |  |  |  |  |  |  |  |  | > 50 | > 50 |
| smilaside G [Compound 34] | > 100 |  | 17.1 ± 3.4 |  |  |  | 17.5 µM and ~17.5 µM | Competitive |  |  |  |
